Assay results from paper PMC9962964, “^68Ga-Labeled [Thz^14]Bombesin(7–14) Analogs: Promising GRPR-Targeting Agonist PET Tracers with Low Pancreas Uptake” (Molecules, 2023).
Where two headings read alike, the source gives them in different places.

Legend:
[1] = pH 7.4
Experimental: Briefly, aliquots (2 μL) of the ^68Ga-labeled peptides were added into a 15 mL falcon tube containing 3 mL of n-octanol and 3 mL of 0.1 mol/L DPBS (pH 7.4). The mixture was vortexed for 1 min and then centrifuged at 3000 rpm for 15 min. Samples of the n-octanol (1 mL) and buffer (1 mL) layers were collected and measured in a gamma counter. LogD7.4 was calculated using the following equation: LogD7.4 = log10 [(counts in the n-octanol phase)/(counts in the buffer phase)].

[2] = Ex vivo biodistribution in PC-3 tumor-bearing mice; design: species or system NRG mice; conditions: mouse; for tissue to tissue ratio at 1 h: male, NRG (NOD.Cg-Rag1^tm1Mom Il2rg^tm1Wjl/SzJ), iv, total radioactivity; for tissue uptake at 1 h: intravenous
Experimental: (§1) For biodistribution studies, the mice were injected with the radiotracer (2–4 MBq) via the tail vein as described above. For blocking, the mice were co-injected with 100 μg of [D-Phe^6,Leu-NHEt^13,des-Met^14]Bombesin(6–14). At 1 h post-injection, the mice were anesthetized through isoflurane inhalation and euthanized through CO2 inhalation. Blood was collected through a cardiac puncture, and organs/tissues of interest were collected, weighed, and counted using a Perkin Elmer (Waltham, MA, USA) Wizard2 2480 automatic gamma counter.

PC-3 tumor xenografts [3] = assay: Ex vivo biodistribution in PC-3 tumor-bearing mice; design: species or system NRG mice
Experimental: as §1

[4] = 15 min post-injection
Experimental: PET/CT imaging, biodistribution, and in vivo stability studies were conducted on male NOD.Cg-Rag1^tm1Mom Il2rg^tm1Wjl/SzJ (NRG) mice, following previously published procedures. The experiments were conducted according to the guidelines established by the Canadian Council on Animal Care and approved by the Animal Ethics Committee of the University of British Columbia (protocol number A20-0113, approved on 30 September 2020). […] Mice were used for PET/CT imaging and biodistribution studies when the tumor grew to 5–8 mm in diameter over around 4 weeks.
At 15 min post-injection, mice were sedated and euthanized, and urine and blood were collected. The plasma was extracted from whole blood by adding CH3CN (500 μL), vortex, centrifugation, and the separation of supernatant. The plasma and urine samples were analyzed via radio-HPLC using the conditions for quality control of these ^68Ga-labeled radioligands (Table S3).

PC-3 tumor xenografts [5] = assay: PET/CT imaging of PC-3 tumor xenografts; format: in vivo, NRG mice; conditions: 1 h post-injection
Experimental: PET/CT imaging experiments were performed on a Siemens (Knoxville, TN) Inveon micro PET/CT scanner. The tumor-bearing mouse was injected with 3–5 MBq of ^68Ga-labeled tracer through a lateral caudal tail vein under anesthesia, followed by recovery and roaming freely in its cage during the uptake period. At 50 min post-injection, a 10 min CT scan was conducted first for the localization and attenuation correction after segmentation for reconstructing the PET images, followed by a 10 min static PET imaging acquisition.

[6] = co-injection of 100 μg [D-Phe6,Leu-NHEt13,des-Met14]Bombesin(6–14), 1 h post-injection

Question: With `CC(C)C[C@H](NC(=O)[C@H](Cc1c[nH]cn1)NC(=O)CNC(=O)[C@@H](NC(=O)[C@H](C)NC(=O)[C@H](Cc1c[nH]c2ccccc12)NC(=O)[C@H](CCC(N)=O)NC(=O)[C@@H](Cc1ccccc1)NC(=O)CN1CCC(NC(=O)CN2CCN(CC(=O)O)CCN(CC(=O)O)CCN(CC(=O)O)CC2)CC1)C(C)C)C(=O)N1CSC[C@H]1C(N)=O` [[^68Ga]Ga-TacBOMB2, metal not drawn] as the molecule, how does the logD [1] read?
Answer: -3.21 ± 0.03

Question: And the tissue to tissue ratio at 1 h ([2]; tumor and bone, 1 h blocked: co-injected with 100 µg of [D-Phe6,Leu-NHEt13,des-Met14]Bombesin(6-14), n = 4, read-out: Tumor/bone uptake ratio)?
Answer: 8.94 ± 1.49

Question: And the tissue to tissue ratio at 1 h ([2]; tumor and bone, 1 h post-injection, n = 4, read-out: Tumor/bone uptake ratio)?
Answer: 28.9 ± 18.3

Question: What about the tissue to tissue ratio at 1 h ([2]; tumor and intestines, 1 h blocked: co-injected with 100 µg of [D-Phe6,Leu-NHEt13,des-Met14]Bombesin(6-14), n = 4, read-out: Tumor/intestines uptake ratio) of the same molecule?
Answer: 3.33 ± 0.67

Question: What about the tissue to tissue ratio at 1 h ([2]; tumor and intestines, 1 h post-injection, n = 4, read-out: Tumor/intestines uptake ratio) of the same molecule?
Answer: 10.5 ± 3.06

Question: And the tissue to tissue ratio at 1 h ([2]; tumor and kidney, 1 h blocked: co-injected with 100 µg of [D-Phe6,Leu-NHEt13,des-Met14]Bombesin(6-14), n = 4, read-out: Tumor/kidney uptake ratio)?
Answer: 0.47 ± 0.04

Question: And the tissue to tissue ratio at 1 h ([2]; tumor and kidney, 1 h post-injection, n = 4, read-out: Tumor/kidney uptake ratio)?
Answer: 2.46 ± 0.33

Question: What about the tissue to tissue ratio at 1 h ([2]; tumor and muscle, 1 h blocked: co-injected with 100 µg of [D-Phe6,Leu-NHEt13,des-Met14]Bombesin(6-14), n = 4, read-out: Tumor/muscle uptake ratio) of the same molecule?
Answer: 7.14 ± 1.4

Question: And the tissue to tissue ratio at 1 h ([2]; tumor and muscle, 1 h post-injection, n = 4, read-out: Tumor/muscle uptake ratio)?
Answer: 57.9 ± 32.8

Question: And the tissue to tissue ratio at 1 h ([2]; tumor and pancreas, 1 h blocked: co-injected with 100 µg of [D-Phe6,Leu-NHEt13,des-Met14]Bombesin(6-14), n = 4, read-out: Tumor/pancreas uptake ratio)?
Answer: 6.22 ± 0.67

Question: What about the tissue to tissue ratio at 1 h ([2]; tumor and pancreas, 1 h post-injection, n = 4, read-out: Tumor/pancreas uptake ratio) of the same molecule?
Answer: 4.64 ± 0.77

Question: And the tissue to tissue ratio at 1 h ([2]; tumor and whole blood, 1 h post-injection, n = 4, read-out: Tumor/blood uptake ratio)?
Answer: 16.4 ± 5.64

Question: And the tissue uptake at 1 h ([2]; PC-3 tumor, 100 ug, 1 h blocked: co-injected with 100 µg of [D-Phe6,Leu-NHEt13,des-Met14]Bombesin(6-14), n = 4, read-out: PC-3 tumor uptake)?
Answer: 0.92 ± 0.22 %ID/g

Question: What about the tissue uptake at 1 h ([2]; PC-3 tumor, 1 h post-injection, n = 4, read-out: PC-3 tumor uptake) of the same molecule?
Answer: 5.95 ± 0.5 %ID/g

Question: What about the tissue uptake at 1 h ([2]; blood, 100 ug, 1 h blocked: co-injected with 100 µg of [D-Phe6,Leu-NHEt13,des-Met14]Bombesin(6-14), n = 4, read-out: Blood uptake) of the same molecule?
Answer: 0.55 ± 0.19 %ID/g

Question: And the tissue uptake at 1 h ([2]; blood, 1 h post-injection, n = 4, read-out: Blood uptake)?
Answer: 0.39 ± 0.12 %ID/g

Question: And the tissue uptake at 1 h ([2]; bone, 100 ug, 1 h blocked: co-injected with 100 µg of [D-Phe6,Leu-NHEt13,des-Met14]Bombesin(6-14), n = 4, read-out: Bone uptake)?
Answer: 0.1 ± 0.03 %ID/g

Question: And the tissue uptake at 1 h ([2]; bone, 1 h post-injection, n = 4, read-out: Bone uptake)?
Answer: 0.26 ± 0.11 %ID/g

Question: And the tissue uptake at 1 h ([2]; brain, 100 ug, 1 h blocked: co-injected with 100 µg of [D-Phe6,Leu-NHEt13,des-Met14]Bombesin(6-14), n = 4, read-out: Brain uptake)?
Answer: 0.02 %ID/g

Question: And the tissue uptake at 1 h ([2]; brain, muscle, fat, bone, liver, stomach, heart, and spleen, 1 h post-injection, read-out: Uptake values for the brain, muscle, fat, bone, liver, stomach, heart, and spleen)?
Answer: < 1 %ID/g

Question: What about the tissue uptake at 1 h ([2]; fat, 100 ug, 1 h blocked: co-injected with 100 µg of [D-Phe6,Leu-NHEt13,des-Met14]Bombesin(6-14), n = 4, read-out: Fat uptake) of the same molecule?
Answer: 0.07 ± 0.02 %ID/g

Question: And the tissue uptake at 1 h ([2]; fat, 1 h post-injection, n = 4, read-out: Fat uptake)?
Answer: 0.1 ± 0.03 %ID/g

Question: And the tissue uptake at 1 h ([2]; heart, 100 ug, 1 h blocked: co-injected with 100 µg of [D-Phe6,Leu-NHEt13,des-Met14]Bombesin(6-14), n = 4, read-out: Heart uptake)?
Answer: 0.16 ± 0.04 %ID/g

Question: And the tissue uptake at 1 h ([2]; heart, 1 h post-injection, n = 4, read-out: Heart uptake)?
Answer: 0.14 ± 0.02 %ID/g

Question: And the tissue uptake at 1 h ([2]; intestines, 100 ug, 1 h blocked: co-injected with 100 µg of [D-Phe6,Leu-NHEt13,des-Met14]Bombesin(6-14), n = 4, read-out: Intestines uptake)?
Answer: 0.28 ± 0.07 %ID/g

Question: What about the tissue uptake at 1 h ([2]; intestines, 1 h post-injection, n = 4, read-out: Intestines uptake) of the same molecule?
Answer: 0.6 ± 0.12 %ID/g

Question: What about the tissue uptake at 1 h ([2]; kidneys, 100 ug, 1 h blocked: co-injected with 100 µg of [D-Phe6,Leu-NHEt13,des-Met14]Bombesin(6-14), n = 4, read-out: Kidneys uptake) of the same molecule?
Answer: 1.99 ± 0.59 %ID/g

Question: What about the tissue uptake at 1 h ([2]; kidneys, 1 h post-injection, n = 4, read-out: Kidneys uptake) of the same molecule?
Answer: 2.43 ± 0.16 %ID/g

Question: And the tissue uptake at 1 h ([2]; lungs, 100 ug, 1 h blocked: co-injected with 100 µg of [D-Phe6,Leu-NHEt13,des-Met14]Bombesin(6-14), n = 4, read-out: Lungs uptake)?
Answer: 0.39 ± 0.1 %ID/g

Question: And the tissue uptake at 1 h ([2]; lungs, 1 h post-injection, n = 4, read-out: Lungs uptake)?
Answer: 0.39 ± 0.1 %ID/g

Question: And the tissue uptake at 1 h ([2]; pancreas, 100 ug, 1 h blocked: co-injected with 100 µg of [D-Phe6,Leu-NHEt13,des-Met14]Bombesin(6-14), n = 4, read-out: Pancreas uptake)?
Answer: 0.15 ± 0.03 %ID/g

Question: What about the tissue uptake at 1 h ([2]; pancreas, 1 h post-injection, n = 4, read-out: Pancreas uptake) of the same molecule?
Answer: 1.3 ± 0.14 %ID/g

Question: What about the tissue uptake at 1 h ([2]; spleen, 100 ug, 1 h blocked: co-injected with 100 µg of [D-Phe6,Leu-NHEt13,des-Met14]Bombesin(6-14), n = 4, read-out: Spleen uptake) of the same molecule?
Answer: 0.18 ± 0.05 %ID/g

Question: And the tissue uptake at 1 h ([2]; spleen, 1 h post-injection, n = 4, read-out: Spleen uptake)?
Answer: 0.27 ± 0.1 %ID/g

Question: And the tissue uptake at 1 h ([2]; stomach, 100 ug, 1 h blocked: co-injected with 100 µg of [D-Phe6,Leu-NHEt13,des-Met14]Bombesin(6-14), n = 4, read-out: Stomach uptake)?
Answer: 0.13 ± 0.06 %ID/g

Question: And the tissue uptake at 1 h ([2]; testes, 100 ug, 1 h blocked: co-injected with 100 µg of [D-Phe6,Leu-NHEt13,des-Met14]Bombesin(6-14), n = 4, read-out: Testes uptake)?
Answer: 0.21 ± 0.16 %ID/g

Question: What about the Tumor/blood uptake ratio (PC-3 tumor xenografts [3]; 1 h blocked: co-injected with 100 µg of [D-Phe6,Leu-NHEt13,des-Met14]Bombesin(6-14), n = 4) of the same molecule?
Answer: 1.71 ± 0.18

Question: And the “reduction of average uptake in PC-3 tumor xenografts by co-injection of blocker” value (PC-3 tumor xenografts [3]; [6])?
Answer: 85%

Question: What about the “reduction of average uptake in pancreas by co-injection of blocker” value (PC-3 tumor xenografts [3]; [6]) of the same molecule?
Answer: 88%

Question: What about the “reduction of average uptake in stomach by co-injection of blocker” value (PC-3 tumor xenografts [3]; [6]) of the same molecule?
Answer: 76%

Question: And the “intact fraction in plasma” value ([4]; mouse plasma, n = 3)?
Answer: 12.7 ± 2.93%

Question: What about the “intact tracer in urine” value ([4]; mouse urine) of the same molecule?
Answer: no intact

Question: What about the “visualization of PC-3 tumor xenografts in PET images” value (PC-3 tumor xenografts [5]) of the same molecule?
Answer: clearly visualized

Question: What about the excretion pathway (PC-3 tumor xenografts [5]; PET images) of the same molecule?
Answer: primarily excreted via the renal pathway
